Results as given in PubChem BioAssay (NCI).
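GI50 marks 50% less growth. At the TGI there is no net growth.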

Tests used:
Test in all cases: NCI-60 cell line screen, 384-well format; in the data active = GI50 below about 0.43 µM; inactive = the rest
M14 melanoma = tested on: M14 melanoma
SK-MEL-28 melanoma = tested on: SK-MEL-28 melanoma
HCC-2998 colon = tested on: HCC-2998 colon
PC-3 prostate = tested on: PC-3 prostate
HS 578T breast = tested on: HS 578T breast
A498 renal = tested on: A498 renal
EKVX NSCLC = tested on: EKVX NSCLC
SF-295 CNS = tested on: SF-295 CNS
SW-620 colon = tested on: SW-620 colon
NCI-H322M lung = tested on: NCI-H322M lung
MDA-MB-435 melanoma = tested on: MDA-MB-435 melanoma
MDA-MB-468 breast = tested on: MDA-MB-468 breast
MALME-3M melanoma = tested on: MALME-3M melanoma
SF-268 CNS = tested on: SF-268 CNS
NCI/ADR-RES ovarian = tested on: NCI/ADR-RES ovarian
NCI-H522 lung = tested on: NCI-H522 lung
HL-60(TB) leukemia = tested on: HL-60(TB) leukemia
HCT-15 colon = tested on: HCT-15 colon
NCI-H226 lung = tested on: NCI-H226 lung
SNB-75 CNS = tested on: SNB-75 CNS
SK-MEL-2 melanoma = tested on: SK-MEL-2 melanoma
OVCAR-5 ovarian = tested on: OVCAR-5 ovarian
HCT-116 colon = tested on: HCT-116 colon
UACC-62 melanoma = tested on: UACC-62 melanoma
OVCAR-3 ovarian = tested on: OVCAR-3 ovarian
SK-OV-3 ovarian = tested on: SK-OV-3 ovarian
IGROV1 ovarian = tested on: IGROV1 ovarian
NCI-H460 NSCLC = tested on: NCI-H460 NSCLC
T-47D breast = tested on: T-47D breast
SF-539 CNS = tested on: SF-539 CNS
SK-MEL-5 melanoma = tested on: SK-MEL-5 melanoma
RXF 393 renal = tested on: RXF 393 renal
SNB-19 CNS = tested on: SNB-19 CNS
CAKI-1 renal = tested on: CAKI-1 renal
786-0 renal = tested on: 786-0 renal
A549 NSCLC = tested on: A549 NSCLC
UACC-257 melanoma = tested on: UACC-257 melanoma
ACHN renal = tested on: ACHN renal
MCF7 breast = tested on: MCF7 breast
HOP-92 NSCLC = tested on: HOP-92 NSCLC
CCRF-CEM leukemia = tested on: CCRF-CEM leukemia
RPMI-8226 leukemia = tested on: RPMI-8226 leukemia
BT-549 breast = tested on: BT-549 breast
KM12 colon = tested on: KM12 colon
MOLT-4 leukemia = tested on: MOLT-4 leukemia
SR leukemia = tested on: SR leukemia
NCI-H23 lung = tested on: NCI-H23 lung
HT29 colon = tested on: HT29 colon
COLO 205 colon = tested on: COLO 205 colon
TK-10 renal = tested on: TK-10 renal
U251 glioblastoma = tested on: U251 glioblastoma
K-562 leukemia = tested on: K-562 leukemia
UO-31 renal = tested on: UO-31 renal
HOP-62 NSCLC = tested on: HOP-62 NSCLC
LOX IMVI melanoma = tested on: LOX IMVI melanoma
DU-145 prostate = tested on: DU-145 prostate
SN12C renal = tested on: SN12C renal
MDA-MB-231 breast = tested on: MDA-MB-231 breast
OVCAR-4 ovarian = tested on: OVCAR-4 ovarian

COc1nccc(-c2c(-c3ccc(F)cc3)ncn2C2CCC(O)CC2)n1 (stereo not drawn)
inactive: GI50 (M14 melanoma) > 100 µM | GI50 (SK-MEL-28 melanoma) > 100 µM | GI50 (HCC-2998 colon) > 100 µM | GI50 (PC-3 prostate) > 100 µM | GI50 (HS 578T breast) > 100 µM | GI50 (A498 renal) > 100 µM | GI50 (EKVX NSCLC) > 100 µM | GI50 (SF-295 CNS) > 100 µM | GI50 (SW-620 colon) > 100 µM | GI50 (NCI-H322M lung) > 100 µM | GI50 (MDA-MB-435 melanoma) > 100 µM | GI50 (MDA-MB-468 breast) 13.2 µM | GI50 (MALME-3M melanoma) > 100 µM | GI50 (SF-268 CNS) > 100 µM | GI50 (NCI/ADR-RES ovarian) > 100 µM | GI50 (NCI-H522 lung) 22.6 µM | GI50 (HL-60(TB) leukemia) 77 µM | GI50 (HCT-15 colon) 58.7 µM | GI50 (NCI-H226 lung) 91.2 µM | GI50 (SNB-75 CNS) > 100 µM | GI50 (SK-MEL-2 melanoma) > 100 µM | GI50 (OVCAR-5 ovarian) > 100 µM | GI50 (HCT-116 colon) > 100 µM | GI50 (UACC-62 melanoma) > 100 µM | GI50 (OVCAR-3 ovarian) > 100 µM | GI50 (SK-OV-3 ovarian) 62.5 µM | GI50 (IGROV1 ovarian) 38.5 µM | GI50 (NCI-H460 NSCLC) 71.6 µM | GI50 (T-47D breast) > 100 µM | GI50 (SF-539 CNS) > 100 µM | GI50 (SK-MEL-5 melanoma) 90.3 µM | GI50 (RXF 393 renal) > 100 µM | GI50 (SNB-19 CNS) > 100 µM | GI50 (CAKI-1 renal) 31.7 µM | GI50 ([…]-0 renal) 69.8 µM | GI50 (A549 NSCLC) 39.2 µM | GI50 (UACC-257 melanoma) > 100 µM | GI50 (ACHN renal) 36.3 µM | GI50 (MCF7 breast) 36.2 µM | GI50 (HOP-92 NSCLC) > 100 µM | GI50 (CCRF-CEM leukemia) 50 µM | GI50 (RPMI-8226 leukemia) 90.1 µM | GI50 (BT-549 breast) > 100 µM | GI50 (KM12 colon) > 100 µM | GI50 (MOLT-4 leukemia) 29.5 µM | GI50 (SR leukemia) 31.6 µM | GI50 (NCI-H23 lung) > 100 µM | GI50 (HT29 colon) 46 µM | GI50 (COLO 205 colon) > 100 µM | GI50 (TK-10 renal) 37.4 µM | GI50 (U251 glioblastoma) > 100 µM | GI50 (K-562 leukemia) 36.1 µM | GI50 (UO-31 renal) 31.4 µM | GI50 (HOP-62 NSCLC) > 100 µM | GI50 (LOX IMVI melanoma) > 100 µM | GI50 (DU-145 prostate) > 100 µM | GI50 (SN12C renal) > 100 µM | GI50 (MDA-MB-231 breast) > 100 µM | GI50 (OVCAR-4 ovarian) > 100 µM
> 100 µM: TGI (M14 melanoma) | TGI (SK-MEL-28 melanoma) | TGI (HCC-2998 colon) | TGI (PC-3 prostate) | TGI (HS 578T breast) | TGI (A498 renal) | TGI (EKVX NSCLC) | TGI (SF-295 CNS) | TGI (SW-620 colon) | TGI (NCI-H322M lung) | TGI (MDA-MB-435 melanoma) | TGI (MDA-MB-468 breast) | TGI (MALME-3M melanoma) | TGI (SF-268 CNS) | TGI (NCI/ADR-RES ovarian) | TGI (HL-60(TB) leukemia) | TGI (HCT-15 colon) | TGI (NCI-H226 lung) | TGI (SNB-75 CNS) | TGI (SK-MEL-2 melanoma) | TGI (OVCAR-5 ovarian) | TGI (HCT-116 colon) | TGI (UACC-62 melanoma) | TGI (OVCAR-3 ovarian) | TGI (SK-OV-3 ovarian) | TGI (IGROV1 ovarian) | TGI (NCI-H460 NSCLC) | TGI (T-47D breast) | TGI (SF-539 CNS) | TGI (SK-MEL-5 melanoma) | TGI (RXF 393 renal) | TGI (SNB-19 CNS) | TGI (CAKI-1 renal) | TGI (786-0 renal) | TGI (A549 NSCLC) | TGI (UACC-257 melanoma) | TGI (ACHN renal) | TGI (MCF7 breast) | TGI (HOP-92 NSCLC) | TGI (CCRF-CEM leukemia) | TGI (RPMI-8226 leukemia) | TGI (BT-549 breast) | TGI (KM12 colon) | TGI (MOLT-4 leukemia) | TGI (SR leukemia) | TGI (NCI-H23 lung) | TGI (HT29 colon) | TGI (COLO 205 colon) | TGI (TK-10 renal) | TGI (U251 glioblastoma) | TGI (K-562 leukemia) | TGI (UO-31 renal) | TGI (HOP-62 NSCLC) | TGI (LOX IMVI melanoma) | TGI (DU-145 prostate) | TGI (SN12C renal) | TGI (MDA-MB-231 breast) | TGI (OVCAR-4 ovarian)
93.5 µM: TGI (NCI-H522 lung)
